pEC50, pIC50: −log10 of the molar value. Read-outs that look alike come from different tables or passages of the source.
Experiments:
TNFα = experiment: IRAK4 Monocyte TNFα Cell Based Assay; set-up: species or system human; settings: Homo sapiens, Monocyte, read-out: EC50 MONO TNF HTRF
Procedure, shortened: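 Human monocytes (5,000/well) pretreated with compound 1 h at 37 °C (0.1% DMSO final), then stimulated with 50 pg/ml LPS for 4 h. Secreted TNFα measured by TR-FRET two-antibody detection after overnight incubation at room temperature; % control relative to unstimulated and LPS-stimulated wells.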

IRAK4 enzyme = IRAK4 enzyme (Homo sapiens (Human), UniProt Q9NWZ3); experiment: IRAK4 Biochemical Assay (TR-FRET, STK1 KinEASE)
IRAK4 enzyme, sequence (Q9NWZ3 whole entry): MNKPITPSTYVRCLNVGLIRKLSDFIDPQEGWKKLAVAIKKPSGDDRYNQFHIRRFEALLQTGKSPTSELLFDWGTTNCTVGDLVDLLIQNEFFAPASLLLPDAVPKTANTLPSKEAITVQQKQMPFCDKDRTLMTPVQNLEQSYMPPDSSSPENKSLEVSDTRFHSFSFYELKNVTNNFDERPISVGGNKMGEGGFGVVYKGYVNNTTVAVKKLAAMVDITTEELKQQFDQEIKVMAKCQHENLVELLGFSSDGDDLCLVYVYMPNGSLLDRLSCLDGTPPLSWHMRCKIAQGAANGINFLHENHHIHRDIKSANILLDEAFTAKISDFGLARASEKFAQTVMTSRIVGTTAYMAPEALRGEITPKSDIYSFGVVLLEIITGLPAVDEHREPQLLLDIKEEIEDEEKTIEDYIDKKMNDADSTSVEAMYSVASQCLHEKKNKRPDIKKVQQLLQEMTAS
Procedure, shortened: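 IRAK4 (0.75 nM) preincubated 15 min with compound and […] STK1 peptide, then started with 500 μM ATP in HEPES pH 7.0 buffer with MgCl2, DTT, BSA, NP-40; 120 min at room temperature.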

[1] = human monocytes, second part of Table 2, compounds 33-343, unit inferred

SMILES | pEC50 (TNFα; [1]) | pIC50 (IRAK4 enzyme) | pEC50 (TNFα)
CC(=O)N[C@@H]1[C@@H]2CC[C@H]1N(c1nnc(-c3cnc(-c4ccc5cc(C#N)cnn45)cc3NC(C)C)s1)C2 [Example 137, N-((1R,4R,7R)-2-(5-(6-(3-cyanopyrrolo[1,2-b]pyridazin-7-yl)-4-(isopropylamino)pyridin-3-yl)-1,3,4-thiadiazol-2-yl)-2-azabicyclo[2.2.1]heptan-7-yl)acetamide] | 8.19 | 9.07 | 
CC(=O)N[C@@H]1C[C@@H]2CC[C@H]1N2c1nnc(-c2cnc(-c3ccc4cc(C#N)cnn34)cc2NC(C)C)s1 [Example 141, N-((1R,2R,4S)-7-(5-(6-(3-cyanopyrrolo[1,2-b]pyridazin-7-yl)-4-(isopropylamino)pyridin-3-yl)-1,3,4-thiadiazol-2-yl)-7-azabicyclo[2.2.1]heptan-2-yl)acetamide] |  | 9.30 | 7.73
CC1(Nc2cc(-c3ccc4cc(C#N)cnn34)ncc2-c2nnc(N3C[C@H]4CC[C@@H](C3)O4)s2)COC1 [Example 145, 7-(5-(5-((1R,5S)-8-oxa-3-azabicyclo[3.2.1]octan-3-yl)-1,3,4-thiadiazol-2-yl)-4-((3-methyloxetan-3-yl)amino)pyridin-2-yl)pyrrolo[1,2-b]pyridazine-3-carbonitrile] | 8.25 | 9.48 | 
CC(=O)N[C@@H]1CCN(c2nnc(-c3cnc(-c4ccc5cc(C#N)cnn45)cc3N[C@H](C)C#N)s2)CC1(F)F [Example 151, N-((R)-1-(5-(4-(((R)-1-cyanoethyl)amino)-6-(3-cyanopyrrolo[1,2-b]pyridazin-7-yl)pyridin-3-yl)-1,3,4-thiadiazol-2-yl)-3,3-difluoropiperidin-4-yl)acetamide] | 8.30 | 8.99 | 
CC(=O)N[C@H]1CCN(c2nnc(-c3cnc(-c4ccc5cc(C#N)cnn45)cc3N[C@H](C)C#N)s2)CC1(F)F [Example 152, N-((S)-1-(5-(4-(((R)-1-cyanoethyl)amino)-6-(3-cyanopyrrolo[1,2-b]pyridazin-7-yl)pyridin-3-yl)-1,3,4-thiadiazol-2-yl)-3,3-difluoropiperidin-4-yl)acetamide] | 7.97 | 9.24 | 
CC(C)Nc1cc(-c2ccc3cc(C#N)cnn23)ncc1-c1nnc(N2CC[C@H](O)C(F)(F)C2)s1 [Example 161, (S)-7-(5-(5-(3,3-difluoro-4-hydroxypiperidin-1-yl)-1,3,4-thiadiazol-2-yl)-4-(isopropylamino)pyridin-2-yl)pyrrolo[1,2-b]pyridazine-3-carbonitrile] | 7.46 | 8.83 | 
CC(C)Nc1cc(-c2ccc3cc(C#N)cnn23)ncc1-c1nnc(N2CC[C@@H](O)C(F)(F)C2)s1 [Example 162, (R)-7-(5-(5-(3,3-difluoro-4-hydroxypiperidin-1-yl)-1,3,4-thiadiazol-2-yl)-4-(isopropylamino)pyridin-2-yl)pyrrolo[1,2-b]pyridazine-3-carbonitrile] | 7.58 | 8.64 | 
CC(C)Nc1cc(-c2ccc3cc(C#N)cnn23)ncc1-c1nnc(N2CC3(CNC(=O)C3)C2)s1 [Example 163, 7-(4-(isopropylamino)-5-(5-(7-oxo-2,6-diazaspiro[3.4]octan-2-yl)-1,3,4-thiadiazol-2-yl)pyridin-2-yl)pyrrolo[1,2-b]pyridazine-3-carbonitrile] | 7.82 | 9.27 | 
CC(C)Nc1cc(-c2ccc3cc(C#N)cnn23)ncc1-c1nnc(N2CCOC(F)(F)C2)s1 [Example 167, 7-(5-(5-(2,2-difluoromorpholino)-1,3,4-thiadiazol-2-yl)-4-(isopropylamino)pyridin-2-yl)pyrrolo[1,2-b]pyridazine-3-carbonitrile] | 6.00 | 8.74 | 
CC(=O)N[C@@H]1CCN(c2nnc(-c3cnc(-c4ccc5cc(C#N)cnn45)cc3NC(C)C)s2)CC1(F)F [Example 168, (R)-N-(1-(5-(6-(3-cyanopyrrolo[1,2-b]pyridazin-7-yl)-4-(isopropylamino)pyridin-3-yl)-1,3,4-thiadiazol-2-yl)-3,3-difluoropiperidin-4-yl)acetamide] | 8.08 | 9.19 | 
CC(=O)N[C@H]1CCN(c2nnc(-c3cnc(-c4ccc5cc(C#N)cnn45)cc3NC(C)C)s2)CC1(F)F [Example 169, (S)-N-(1-(5-(6-(3-cyanopyrrolo[1,2-b]pyridazin-7-yl)-4-(isopropylamino)pyridin-3-yl)-1,3,4-thiadiazol-2-yl)-3,3-difluoropiperidin-4-yl)acetamide] | 6.66 | 9.03 | 
CC(=O)NC1CCC2(C1)CN(c1nnc(-c3cnc(-c4ccc5cc(C#N)cnn45)cc3NC(C)C)s1)C2 (stereo not drawn) [Example 170, N-(2-(5-(6-(3-cyanopyrrolo[1,2-b]pyridazin-7-yl)-4-(isopropylamino)pyridin-3-yl)-1,3,4-thiadiazol-2-yl)-2-azaspiro[3.4]octan-6-yl)acetamide] | 7.80 | 9.44 | 
N#Cc1cnn2c(-c3cc(NC4CCOCC4)c(-c4nnc(N5CC6CC(C5)O6)s4)cn3)ccc2c1 [Example 177, 7-(5-(5-(6-oxa-3-azabicyclo[3.1.1]heptan-3-yl)-1,3,4-thiadiazol-2-yl)-4-((tetrahydro-2H-pyran-4-yl)amino)pyridin-2-yl)pyrrolo[1,2-b]pyridazine-3-carbonitrile] |  | 9.39 | 8.08
C[C@H](C#N)Nc1cc(-c2ccc3cc(C#N)cnn23)ncc1-c1nnc(N2CC3CC(C2)O3)s1 [Example 178, 7-(5-(5-(6-oxa-3-azabicyclo[3.1.1]heptan-3-yl)-1,3,4-thiadiazol-2-yl)-4-(((R)-1-cyanoethyl)amino)pyridin-2-yl)pyrrolo[1,2-b]pyridazine-3-carbonitrile] |  | 9.35 | 8.31
CC(=O)N[C@@H]1CCN(c2nnc(-c3cnc(-c4ccc5cc(C#N)cnn45)cc3NC3COC3)s2)CC1(F)F [Example 183, (R)-N-(1-(5-(6-(3-cyanopyrrolo[1,2-b]pyridazin-7-yl)-4-(oxetan-3-ylamino)pyridin-3-yl)-1,3,4-thiadiazol-2-yl)-3,3-difluoropiperidin-4-yl)acetamide] | 8.06 | 9.30 | 
CC1(O)CCN(c2nnc(-c3cnc(-c4ccc5cc(C#N)cnn45)cc3NC3COC3)s2)CC1 [Example 187, 7-(5-(5-(4-hydroxy-4-methylpiperidin-1-yl)-1,3,4-thiadiazol-2-yl)-4-(oxetan-3-ylamino)pyridin-2-yl)pyrrolo[1,2-b]pyridazine-3-carbonitrile] | 7.97 | 9.18 | 
CC1(O)CCN(c2nnc(-c3cnc(-c4ccc5cc(C#N)cnn45)cc3NC3CCOCC3)s2)CC1 [Example 188, 7-(5-(5-(4-hydroxy-4-methylpiperidin-1-yl)-1,3,4-thiadiazol-2-yl)-4-((tetrahydro-2H-pyran-4-yl)amino)pyridin-2-yl)pyrrolo[1,2-b]pyridazine-3-carbonitrile] | 8.12 | 8.97 | 
CC(C)Nc1cc(-c2ccc3cc(C#N)cnn23)ncc1-c1nnc(N2CC[C@](C)(O)[C@@H](F)C2)s1 [Example 190, 7-(5-(5-((3S,4S)-3-fluoro-4-hydroxy-4-methylpiperidin-1-yl)-1,3,4-thiadiazol-2-yl)-4-(isopropylamino)pyridin-2-yl)pyrrolo[1,2-b]pyridazine-3-carbonitrile] | 7.93 | 8.86 | 
CC(C)Nc1cc(-c2ccc3cc(C#N)cnn23)ncc1-c1nnc(N2CC[C@@](C)(O)[C@H](F)C2)s1 [Example 191, 7-(5-(5-((3R,4R)-3-fluoro-4-hydroxy-4-methylpiperidin-1-yl)-1,3,4-thiadiazol-2-yl)-4-(isopropylamino)pyridin-2-yl)pyrrolo[1,2-b]pyridazine-3-carbonitrile] | 7.64 | 8.94 | 
CC(C)Nc1cc(-c2ccc3cc(C#N)cnn23)ncc1-c1nnc(N2CC[C@](C)(O)[C@H](F)C2)s1 [Example 192, 7-(5-(5-((3R,4S)-3-fluoro-4-hydroxy-4-methylpiperidin-1-yl)-1,3,4-thiadiazol-2-yl)-4-(isopropylamino)pyridin-2-yl)pyrrolo[1,2-b]pyridazine-3-carbonitrile] | 7.61 | 8.92 | 
CC(=O)NC1[C@@H]2COC[C@H]1CN(c1nnc(-c3cnc(-c4ccc5cc(C#N)cnn45)cc3NC(C)C)s1)C2 (stereo partly drawn) [Example 193, N-((1R,5S)-7-(5-(6-(3-cyanopyrrolo[1,2-b]pyridazin-7-yl)-4-(isopropylamino)pyridin-3-yl)-1,3,4-thiadiazol-2-yl)-3-oxa-7-azabicyclo[3.3.1]nonan-9-yl)acetamide] | 8.39 | 9.17 | 
CC(=O)NC1CCC(F)(c2nnc(-c3cnc(-c4ccc5cc(C#N)cnn45)cc3NC(C)C)s2)CC1 (stereo not drawn) [Example 194, N-(4-(5-(6-(3-cyanopyrrolo[1,2-b]pyridazin-7-yl)-4-(isopropylamino)pyridin-3-yl)-1,3,4-thiadiazol-2-yl)-4-fluorocyclohexyl)acetamide] | 7.19 | 9.12 | 
CC(=O)NC12C3C4C1C1C2C3C41c1nnc(-c2cnc(-c3ccc4cc(C#N)cnn34)cc2NC(C)C)s1 (stereo not drawn) [Example 197, N-(4-(5-(6-(3-cyanopyrrolo[1,2-b]pyridazin-7-yl)-4-(isopropylamino)pyridin-3-yl)-1,3,4-thiadiazol-2-yl)cuban-1-yl)acetamide] | 7.48 | 8.80 | 
C[C@]1(O)CCN(c2nnc(-c3cnc(-c4ccc5cc(C#N)cnn45)cc3NC3CCOCC3)s2)C[C@@H]1F [Example 204, 7-(5-(5-((3S,4S)-3-fluoro-4-hydroxy-4-methylpiperidin-1-yl)-1,3,4-thiadiazol-2-yl)-4-((tetrahydro-2H-pyran-4-yl)amino)pyridin-2-yl)pyrrolo[1,2-b]pyridazine-3-carbonitrile] | 8.46 | 9.46 | 

Reference: patent US11046686B2, “Thiadiazole IRAK4 compounds” (Gilead Sciences, Inc., priority 2018, dated 2021)
